# In ChEMBL document CHEMBL4354815, “Fibrinolysis Inhibitors: Potential Drugs for the Treatment and Prevention of Bleeding” (J Med Chem, 2020):
# Where a SMILES comes first, the peptide text is derived from it. [ ]: non-standard residue; d: D form. Met(O2) = CS(=O)(=O)CC[C@H](N)C(=O)O
# T1: Complement C1r subcomponent (Homo sapiens, UniProt P00736)
# T1 sequence (P00736 whole entry): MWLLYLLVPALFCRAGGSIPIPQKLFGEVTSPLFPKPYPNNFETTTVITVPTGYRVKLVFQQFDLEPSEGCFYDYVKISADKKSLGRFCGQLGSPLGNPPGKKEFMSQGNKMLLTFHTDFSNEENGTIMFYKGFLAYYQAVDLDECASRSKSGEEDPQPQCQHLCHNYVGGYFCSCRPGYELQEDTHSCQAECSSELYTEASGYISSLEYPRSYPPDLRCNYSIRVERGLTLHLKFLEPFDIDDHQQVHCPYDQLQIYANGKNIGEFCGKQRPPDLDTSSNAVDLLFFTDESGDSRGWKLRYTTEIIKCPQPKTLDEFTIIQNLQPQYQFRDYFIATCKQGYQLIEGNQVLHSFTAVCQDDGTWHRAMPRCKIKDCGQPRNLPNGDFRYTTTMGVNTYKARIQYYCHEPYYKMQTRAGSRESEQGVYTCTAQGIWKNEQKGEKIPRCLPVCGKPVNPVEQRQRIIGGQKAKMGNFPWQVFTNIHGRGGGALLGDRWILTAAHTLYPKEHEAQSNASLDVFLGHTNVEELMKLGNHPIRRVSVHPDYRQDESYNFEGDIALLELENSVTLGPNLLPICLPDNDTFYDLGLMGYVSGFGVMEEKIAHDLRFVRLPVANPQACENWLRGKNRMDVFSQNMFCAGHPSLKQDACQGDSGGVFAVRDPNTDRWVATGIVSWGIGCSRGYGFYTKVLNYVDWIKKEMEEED
# T2: Complement C1s subcomponent (Homo sapiens, UniProt P09871)
# T2 sequence (P09871 whole entry): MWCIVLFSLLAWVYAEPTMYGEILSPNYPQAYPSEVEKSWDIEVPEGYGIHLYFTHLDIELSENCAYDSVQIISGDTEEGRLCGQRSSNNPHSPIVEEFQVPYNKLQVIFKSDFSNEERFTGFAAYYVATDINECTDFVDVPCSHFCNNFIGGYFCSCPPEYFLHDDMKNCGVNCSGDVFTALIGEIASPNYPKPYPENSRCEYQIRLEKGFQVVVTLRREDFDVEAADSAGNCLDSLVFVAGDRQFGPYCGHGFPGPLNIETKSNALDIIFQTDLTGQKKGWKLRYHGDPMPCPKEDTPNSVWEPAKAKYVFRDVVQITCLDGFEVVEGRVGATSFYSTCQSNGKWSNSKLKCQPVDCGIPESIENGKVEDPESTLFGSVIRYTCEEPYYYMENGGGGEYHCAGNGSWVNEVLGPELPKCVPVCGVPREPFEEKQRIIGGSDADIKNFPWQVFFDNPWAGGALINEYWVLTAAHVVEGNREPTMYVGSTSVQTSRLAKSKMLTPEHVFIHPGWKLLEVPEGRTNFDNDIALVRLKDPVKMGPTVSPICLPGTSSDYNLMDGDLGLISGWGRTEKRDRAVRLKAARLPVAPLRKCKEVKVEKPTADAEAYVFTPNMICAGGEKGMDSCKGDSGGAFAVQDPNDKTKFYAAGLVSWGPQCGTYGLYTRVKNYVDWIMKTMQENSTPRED
# T3: Coagulation factor XII (Homo sapiens, UniProt P00748)
# T3 sequence (P00748 whole entry): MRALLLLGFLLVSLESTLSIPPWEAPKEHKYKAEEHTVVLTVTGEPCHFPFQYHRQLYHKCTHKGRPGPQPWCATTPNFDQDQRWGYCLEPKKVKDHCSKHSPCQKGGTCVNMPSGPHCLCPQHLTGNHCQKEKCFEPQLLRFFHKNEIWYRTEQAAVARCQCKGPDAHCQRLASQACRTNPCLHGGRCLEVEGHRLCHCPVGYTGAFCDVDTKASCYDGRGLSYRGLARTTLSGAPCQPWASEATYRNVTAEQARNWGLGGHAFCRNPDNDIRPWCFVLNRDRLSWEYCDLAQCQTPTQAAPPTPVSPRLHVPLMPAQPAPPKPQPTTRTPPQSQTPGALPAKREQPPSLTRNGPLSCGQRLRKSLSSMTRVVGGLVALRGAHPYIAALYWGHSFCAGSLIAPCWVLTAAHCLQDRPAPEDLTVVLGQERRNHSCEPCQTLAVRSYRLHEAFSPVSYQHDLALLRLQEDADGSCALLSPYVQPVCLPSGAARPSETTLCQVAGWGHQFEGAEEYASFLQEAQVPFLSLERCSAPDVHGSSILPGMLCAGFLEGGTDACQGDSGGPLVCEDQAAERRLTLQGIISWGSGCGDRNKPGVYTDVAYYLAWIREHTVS
# B1: Plasminogen (Homo sapiens), P00747 (protein)
# chain: MEHKEVVLLLLLFLKSGQGEPLDDYVNTQGASLFSVTKKQLGAGSIEECAAKCEEDEEFTCRAFQYHSKEQQCVIMAENRKSSIIIRMRDVVLFEKKVYLSECKTGNGKNYRGTMSKTKNGITCQKWSSTSPHRPRFSPATHPSEGLEENYCRNPDNDPQGPWCYTTDPEKRYDYCDILECEEECMHCSGENYDGKISKTMSGLECQAWDSQSPHAHGYIPSKFPNKNLKKNYCRNPDRELRPWCFTTDPNKRWELCDIPRCTTPPPSSGPTYQCLKGTGENYRGNVAVTVSGHTCQHWSAQTPHTHNRTPENFPCKNLDENYCRNPDGKRAPWCHTTNSQVRWEYCKIPSCDSSPVSTEQLAPTAPPELTPVVQDCYHGDGQSYRGTSSTTTTGKKCQSWSSMTPHRHQKTPENYPNAGLTMNYCRNPDADKGPWCFTTDPSVRWEYCNLKKCSGTEASVVAPPPVVLLPDVETPSEEDCMFGNGKGYRGKRATTVTGTPCQDWAAQEPHRHSIFTPETNPRAGLEKNYCRNPDGDVGGPWCYTTNPRKLYDYCDVPQCAAPSFDCGKPQVEPKKCPGRVVGGCVAHPHSWPWQVSLRTRFGMHFCGGTLISPEWVLTAAHCLEKSPRPSSYKVILGAHQEVNLEPHVQEIEVSRLFLEPTRKDIALLKLSSPAVITDKVIPACLPSPNYVVADRTECFITGWGETQGTFGAGLLKEAQLPVIENKVCNRYEFLNGRVQSTELCAGHLAGGTDSCQGDSGGPLVCFEKDKYILQGVTSWGLGCARPNKPGVYVRVSRFVTWIEGVMRNN
# Columns and labels:
# Plasminogen [1] = target: T4, Plasminogen (Homo sapiens, UniProt P00747); test: Inhibition of human plasmin
# Plasminogen [2] = target: T4, Plasminogen; test: Inhibition of plasmin (unknown origin)
# [3] = target: T5, Tissue-type plasminogen activator (Homo sapiens, UniProt P00750); test: Inhibition of tissue-type plasminogen activator (unknown origin)
# [4] = target: T6, Urokinase-type plasminogen activator (Homo sapiens, UniProt P00749); test: Inhibition of urokinase-type plasminogen activator (unknown origin)
# Plasminogen [5] = target: T4, Plasminogen; test: Inhibition of human plasmin assessed as km using S-2251 as the substrate
# Plasminogen [6] = target: T4, Plasminogen; test: Inhibition of human plasmin assessed as reduction in proteolysis activity in presence of fibrinogen after 90 mins by SDS-PAGE analysis
# [7] = Plasma concentration in human at 0.219 mg/kg/h by liquid chromatography-tandem mass spectrometry; format: ADME, organism-based; conditions: in vivo
# Blood = test: Anti-fibrinolytic activity in human whole blood assessed as reduction in clot lysis incubated for 5 mins in presence of tissue-type plasminogen activator by rotational thromboelastometry; format: functional, tissue-based
# [8] = Half life in rat, iv; format: ADME; conditions: in vivo
# [9] = Half life in dog, iv; format: ADME, Canis lupus familiaris; conditions: in vivo
# Plasminogen [10] = target: T4, Plasminogen; test: Inhibition of human plasmin using S-2251 as substrate after 30 mins by spectrophotometric method
# Plasminogen [11] = target: T4, Plasminogen; test: Competitive inhibition of human plasmin assessed as reduction in hydrolytic activity using S-2251 as substrate by spectrophotometric method
# Prothrombin [12] = target: T7, Prothrombin (Homo sapiens, UniProt P00734); test: Inhibition of thrombin (unknown origin) assessed as reduction in hydrolysis activity preincubated for 10 mins followed by spectrozyme TH
# Coagulation factor X [13] = target: T8, Coagulation factor X (Homo sapiens, UniProt P00742); test: Inhibition of human factor 10a (unknown origin) assessed as reduction in hydrolysis activity preincubated for 10 mins followed by spectrozyme FXa
# Plasminogen [14] = target: T4, Plasminogen; test: Inhibition of plasmin (unknown origin) assessed as reduction in amidolytic activity using S-2251 as the substrate after 4 mins
# Plasminogen [15] = target: T4, Plasminogen; test: Inhibition of human plasmin assessed as reduction in fibrinolysis
# [16] = target: Vitamin K-dependent protein C (Homo sapiens, UniProt P04070); test: Inhibition of human activated protein […] C using H-D-Lys(Cbo)-Pro-Arg-pNA as substrate
# [17] = target: T1, Complement C1r subcomponent; test: Inhibition of human Complement C1r subcomponent using Val-Ser-Arg-pNA as substrate
# [18] = Inhibition of human urinary kallikrein using H-D-Val-Leu-Arg-pNA as substrate
# Coagulation factor X [19] = target: T8, Coagulation factor X; test: Inhibition of human factor 10a using MeOCO-d-Cha-Gly-Arg-pNA as substrate
# [20] = target: T2, Complement C1s subcomponent; test: Inhibition of human Complement C1s subcomponent using Val-Ser-Arg-pNA as substrate
# [21] = target: T5, Tissue-type plasminogen activator; test: Inhibition of human tissue-type plasminogen activator using Mes-d-Cha- Gly-Arg-pNA as substrate
# Coagulation factor XII = target: T3, Coagulation factor XII; test: Inhibition of human factor 12a using CHA-Gly-Arg- pNA as substrate
# Prothrombin [22] = target: T7, Prothrombin; test: Inhibition of human factor 2a using Mes-d-Cha-Gly-Arg-pNA as substrate
# [23] = target: T6, Urokinase-type plasminogen activator; test: Inhibition of human urokinase-type plasminogen activator using S-2444 as substrate
# [24] = Initial serum concentration in human at 100 mg/kg, iv; format: ADME, organism-based
# [25] = Half life in human; format: ADME
# [26] = Plasma concentration in human at 100 mg/kg, po measured within 2 to 3 hrs; format: ADME, organism-based; conditions: in vivo
# [27] = Drug level in human serum at 100 mg/kg, iv measured after 3 to 4 hrs; format: ADME, organism-based; conditions: in vivo
# Plasminogen [28] = target: T4, Plasminogen; test: Inhibition of plasmin (unknown origin) using D-Val-Leu-Lys-p-nitroanilide as substrate
# Coagulation factor XI = Coagulation factor XI (Homo sapiens, UniProt P03951); test: Inhibition of human factor 11a using H-D-Lys(Cbo)-Pro-Arg-pNA as substrate
# [29] = compound: CC[C@@H](C)[C@@H](N)C(=O)N[C@@H](Cc1ccccc1)C(=O)N[C@@H](CCCCN)C(=O)Nc1ccc([N+](=O)[O-])cc1; test: (§1) Inhibition of human plasmin assessed as km by Lineweaver-burk method
# [30] = compound: NCCCC[C@H](NC(=O)[C@H](Cc1ccccc1)NC(=O)[C@@H]1CCC(=O)N1)C(=O)Nc1ccc([N+](=O)[O-])cc1; test: as §1
# T8 sequence (P00742 41-179 limits assumed): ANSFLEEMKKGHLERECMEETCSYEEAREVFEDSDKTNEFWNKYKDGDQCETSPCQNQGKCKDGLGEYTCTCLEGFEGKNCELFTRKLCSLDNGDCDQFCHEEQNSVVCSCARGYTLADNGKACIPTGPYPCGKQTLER
# T8 sequence (P00742 235-488 limits assumed): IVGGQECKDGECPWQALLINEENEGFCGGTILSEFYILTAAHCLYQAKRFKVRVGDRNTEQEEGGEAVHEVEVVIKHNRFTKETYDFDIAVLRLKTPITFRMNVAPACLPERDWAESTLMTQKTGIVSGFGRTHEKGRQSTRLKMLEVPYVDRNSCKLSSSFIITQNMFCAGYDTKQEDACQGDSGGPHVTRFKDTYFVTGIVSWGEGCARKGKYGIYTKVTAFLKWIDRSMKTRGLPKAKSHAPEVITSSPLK
# T5 sequence (P00750 whole entry): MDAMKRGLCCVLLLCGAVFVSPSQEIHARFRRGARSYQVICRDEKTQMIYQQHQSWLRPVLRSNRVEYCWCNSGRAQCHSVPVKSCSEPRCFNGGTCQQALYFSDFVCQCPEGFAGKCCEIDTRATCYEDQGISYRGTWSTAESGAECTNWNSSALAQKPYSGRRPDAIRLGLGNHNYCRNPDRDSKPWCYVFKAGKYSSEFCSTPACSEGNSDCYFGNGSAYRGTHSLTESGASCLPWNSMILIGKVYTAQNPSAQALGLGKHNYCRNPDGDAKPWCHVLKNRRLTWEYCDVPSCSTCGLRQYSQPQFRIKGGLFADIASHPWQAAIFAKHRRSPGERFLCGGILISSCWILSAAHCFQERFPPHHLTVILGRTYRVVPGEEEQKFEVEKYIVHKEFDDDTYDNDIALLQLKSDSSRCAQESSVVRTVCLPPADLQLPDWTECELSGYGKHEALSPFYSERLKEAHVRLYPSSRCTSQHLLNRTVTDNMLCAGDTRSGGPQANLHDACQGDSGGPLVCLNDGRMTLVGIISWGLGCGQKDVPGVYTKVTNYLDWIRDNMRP
# Chain of Vitamin K-dependent protein C (P04070 43-197 limits assumed): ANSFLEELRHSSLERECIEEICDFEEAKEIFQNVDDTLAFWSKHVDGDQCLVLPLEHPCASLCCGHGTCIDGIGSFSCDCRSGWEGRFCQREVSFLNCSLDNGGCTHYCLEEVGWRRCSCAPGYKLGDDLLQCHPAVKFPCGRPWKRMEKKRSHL
# Chain of Vitamin K-dependent protein C (P04070 212-461 limits assumed): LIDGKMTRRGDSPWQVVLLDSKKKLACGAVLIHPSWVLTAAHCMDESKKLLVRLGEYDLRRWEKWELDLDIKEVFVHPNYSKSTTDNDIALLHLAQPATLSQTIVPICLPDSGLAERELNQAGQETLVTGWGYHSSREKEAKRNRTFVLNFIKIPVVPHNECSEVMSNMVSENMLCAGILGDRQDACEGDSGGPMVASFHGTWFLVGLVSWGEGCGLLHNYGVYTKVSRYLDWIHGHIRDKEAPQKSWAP
# Chain of Coagulation factor XI (P03951 19-387 limits assumed): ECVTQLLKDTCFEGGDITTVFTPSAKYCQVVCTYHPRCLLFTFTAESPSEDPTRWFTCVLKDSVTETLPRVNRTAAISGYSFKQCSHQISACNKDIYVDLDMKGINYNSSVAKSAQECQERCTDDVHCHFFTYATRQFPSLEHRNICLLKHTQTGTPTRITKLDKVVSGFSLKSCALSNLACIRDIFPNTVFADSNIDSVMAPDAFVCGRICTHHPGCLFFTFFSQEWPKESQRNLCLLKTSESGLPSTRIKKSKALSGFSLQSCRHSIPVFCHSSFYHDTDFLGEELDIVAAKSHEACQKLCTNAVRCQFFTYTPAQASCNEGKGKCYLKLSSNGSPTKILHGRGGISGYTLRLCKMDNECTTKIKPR
# Chain of Coagulation factor XI (P03951 388-625 limits assumed): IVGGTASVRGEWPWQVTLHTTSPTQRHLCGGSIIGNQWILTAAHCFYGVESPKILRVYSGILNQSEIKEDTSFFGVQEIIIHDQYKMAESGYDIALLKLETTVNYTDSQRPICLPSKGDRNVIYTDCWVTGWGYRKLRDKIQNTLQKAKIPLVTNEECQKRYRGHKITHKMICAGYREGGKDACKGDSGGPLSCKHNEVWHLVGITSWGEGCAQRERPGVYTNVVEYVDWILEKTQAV
molecule,measurement,setting,value
N=C(N)c1cccc(C[C@H](NS(=O)(=O)c2ccc3ccccc3c2)C(=O)N2CCCC(C(=O)NCc3cccs3)C2)c1 (some centres not stated),Ki,Plasminogen [1],0.14 µM
N=C(N)c1ccc(CNC(=O)[C@@H]2CCN2C(=O)[C@H](NCC(=O)O)C2CCCCC2)cc1,Ki,Plasminogen [2],0.7 µM
same,Ki,[3],0.9 µM
same,Ki,[4],6.3 µM
CC[C@@H](C)[C@@H](N)C(=O)N[C@@H](Cc1ccccc1)C(=O)N[C@@H](CCCCN)C(=O)Nc1ccc([N+](=O)[O-])cc1,Km,Plasminogen [5],30 µM
CC(=O)N[C@@H](CCCCN)C(=O)N[C@@H](CCS(C)(=O)=O)C(=O)N[C@@H](Cc1ccc(O)cc1)C(=O)N[C@H](C=O)CCCNC(=N)N (Ac-K[Met(O2)]YR-aldehyde),Ki,Plasminogen [6],0.0033 µM
N=C(N)c1ccc(CNC(=O)[C@H](Cc2cccc(CN)c2)NC(=O)[C@@H](CCCc2ccccc2)NS(=O)(=O)Cc2cccc(C(=O)O)c2)cc1,concentration,[7],900 nM
same,IC50,Blood,0.15 µM
same,half-life,[8],20 min
same,half-life,[9],20 min
N=C(N)Nc1ccc(C(=O)Oc2ccc(S(N)(=O)=O)cc2)cc1,Ki,Plasminogen [10],0.31 µM
CCOC(=O)c1ccc(OC(=O)CCCCCNC(=N)N)cc1 [GABEXATE],Ki,Plasminogen [11],1.9 µM
O=c1c(OS(=O)(=O)O)c(-c2ccc(OS(=O)(=O)O)c(OS(=O)(=O)O)c2)oc2cc(OS(=O)(=O)O)cc(OCc3cn(CCCCCCCCn4c(-c5ccc(OS(=O)(=O)O)cc5)nc5ccccc5c4=O)nn3)c12,IC50,Prothrombin [12],> 500 µM
same,IC50,Coagulation factor X [13],> 250 µM
NCCCC[C@H](NC(=O)[C@H]1CC[C@H](CN)CC1)C(=O)Nc1ccc(C(=O)c2ccccc2)cc1,IC50,Plasminogen [14],15 µM
same,IC50,Plasminogen [15],6.1 µM
N=C(N)c1ccc(CNC(=O)[C@H](CCC2CCNCC2)NC(=O)[C@@H](CCC2CCN(C(=O)C3CC3)CC2)NS(=O)(=O)Cc2ccccc2)cc1,Ki,[16],> 1 µM
same,Ki,[17],> 1 µM
same,Ki,[18],> 1 µM
same,Ki,Coagulation factor X [19],> 1 µM
same,Ki,[20],> 1 µM
same,Ki,[21],> 1 µM
same,Ki,Coagulation factor XII,> 1 µM
same,Ki,Prothrombin [22],> 1 µM
NC[C@H]1CC[C@H](C(=O)O)CC1 [TRANEXAMIC ACID],IC50,Blood,2.75 µM
same,Ki,[23],2000 µM
NCCCCCC(=O)O [AMINOCAPROIC ACID],C0,[24],1500 µg/mL
same,half-life,[25],80 min
same,Cp,[26],300 µg/mL
same,Drug uptake,[27],0.035 mg/mL
O=C(CCC1CCCC(NC(=O)[C@H](Cc2c[nH]c3ccccc23)NC(=O)OCc2ccccc2)C1=O)N[C@@H](Cc1c[nH]c2ccccc12)C(=O)O (mixture of isomers),Ki,Plasminogen [28],5 to 10 µM
N=C(N)c1ccc(CNC(=O)[C@H](CCC2CCNCC2)NC(=O)[C@@H](CCCc2ccccc2)NS(=O)(=O)Cc2ccccc2)cc1,Ki,[16],> 0.13 µM
same,Ki,[17],> 0.13 µM
same,Ki,[18],> 0.13 µM
same,Ki,Coagulation factor X [19],> 0.13 µM
same,Ki,Coagulation factor XI,> 0.13 µM
same,Ki,[20],> 0.13 µM
same,Ki,[21],> 0.13 µM
same,Ki,Coagulation factor XII,> 0.13 µM
same,Ki,Prothrombin [22],> 0.13 µM
B1,Km,[29],20 µM
same,Km,[30],300 µM
